From article PMC4628094, “In Vitro Assessment of Uptake and Lysosomal Sequestration of Respiratory Drugs in Alveolar Macrophage Cell Line NR8383” (Pharmaceutical Research, 2015)
Like-named read-outs stand apart in the source and are kept apart here. Marks after values point to notes of the source that are not given here.

How the values were obtained:
[1] = Uptake kinetics of clarithromycin in NR8383, two-step method; type: in vitro ADME, rat; conditions: rat, incubation media of NR8383 cells; NR8383 incubation media; read-out: fraction unbound in the media (fumed)
[2] = test system: NR8383 cells; assay: as above; type: in vitro ADME, rat; conditions: in the presence of NH4Cl
[3] = test system: NR8383 cells; assay: LysoTracker Red (LTR) confocal assessment of lysosomal sequestration in NR8383; type: cell-based, rat; conditions: drug 5 μM co-incubated with 200 nM LTR, 1 h
[4] = Physicochemical properties, experimental literature values (Table I); conditions: classification in Table I
[5] = test system: NR8383 cells; conditions: NR8383, 5 μM drug, 5 min
[6] = test system: NR8383 cells
[7] = test system: NR8383 cell line and granule fraction (containing lysosomes); conditions: ref ([12]), cited from earlier work
[8] = experimental value; ref ([21])-([30]) per drug, Table I; cited from earlier work
[9] = test system: NR8383 cells; assay: Drug uptake in NR8383 at 37 and 4°C (CLuptake, CLdiff, Kp)
[10] = test system: NR8383 cells; assay: Lysosomal sequestration studies in NR8383 with NH4Cl, monensin and nigericin; conditions: for Reduction in uptake clearance (%): preliminary optimisation; for % Reduction in Kp by NH4Cl: NH4Cl 20 mM
[11] = test system: NR8383 cells; assay: Accumulation (Kp) in NR8383 over a concentration range, two-site binding model; conditions: apparent saturable uptake equilibrium constant, two-site binding model, control
[12] = test system: isolated perfused lungs of rats; conditions: depending on concentration, ref ([37],[43],[44]); cited from earlier work
[13] = test system: Lysosomes isolated from male Wistar rat liver; set-up: method as in ref (4) (a number printed in a supplementary file, which may have a reference list of its own: not looked up in the article's list); conditions: 10 min, ref (4), cited from earlier work
[14] = test system: Lung tissue slices from male Wistar rats; set-up: method as in ref (5) (a number printed in a supplementary file, which may have a reference list of its own: not looked up in the article's list); conditions: NH4Cl 20 mM, drug 5 µM, 60 min, ref (5); cited from earlier work
[15] = test system: Liver tissue slices from male Wistar rats; set-up: method as in ref (5) (a number printed in a supplementary file, which may have a reference list of its own: not looked up in the article's list); conditions: NH4Cl 20 mM, drug 5 µM, 60 min, ref (5); cited from earlier work
[16] = test system: Lung granule fraction containing lysosomes from male Wistar rats; set-up: method as in ref (6) (a number printed in a supplementary file, which may have a reference list of its own: not looked up in the article's list); conditions: NH4Cl 10 mM, drug 1 µM, 10 min; ref (6); cited from earlier work
[17] = test system: Lung tissue slices from male Wistar rats; set-up: method as in ref (8) (a number printed in a supplementary file, which may have a reference list of its own: not looked up in the article's list); conditions: NH4Cl 20 mM, drug 5 µM, 60 min, ref (8); cited from earlier work
[18] = test system: Liver tissue slices from male Wistar rats; set-up: method as in ref (8) (a number printed in a supplementary file, which may have a reference list of its own: not looked up in the article's list); conditions: NH4Cl 20 mM, drug 5 µM, 60 min, ref (8); cited from earlier work
[19] = test system: Lung tissue slices from male Wistar rats; set-up: method as in ref (9) (a number printed in a supplementary file, which may have a reference list of its own: not looked up in the article's list); conditions: NH4Cl 20 mM, drug 5 µM, 60 min, ref (9); cited from earlier work
[20] = test system: Liver tissue slices from male Wistar rats; set-up: method as in ref (9) (a number printed in a supplementary file, which may have a reference list of its own: not looked up in the article's list); conditions: NH4Cl 20 mM, drug 5 µM, 60 min, ref (9); cited from earlier work
[21] = test system: Brain slices from male Wistar rats; set-up: method as in ref (10) (a number printed in a supplementary file, which may have a reference list of its own: not looked up in the article's list); conditions: drug 5 µM, 60 min, ref (10), cited from earlier work
[22] = test system: Lung tissue slices from male Wistar rats; set-up: method as in ref (14) (a number printed in a supplementary file, which may have a reference list of its own: not looked up in the article's list); conditions: monensin 10 µM, drug 5 µM, 60 min, ref (14); cited from earlier work
[23] = test system: Liver tissue slices from male Wistar rats; set-up: method as in ref (14) (a number printed in a supplementary file, which may have a reference list of its own: not looked up in the article's list); conditions: monensin 10 µM, drug 5 µM, 60 min, ref (14); cited from earlier work
[24] = test system: Primary rat cerebellar neurons; set-up: method as in ref (15) (a number printed in a supplementary file, which may have a reference list of its own: not looked up in the article's list); conditions: drug 10^-4 µM, 30 min, ref (15), cited from earlier work
[25] = test system: Lysosomes isolated from male Wistar rat liver; set-up: method as in ref (16) (a number printed in a supplementary file, which may have a reference list of its own: not looked up in the article's list); conditions: nigericin […], drug 1 µM, 20 min, ref (16), cited from earlier work
[26] = test system: NR8383 cell line; set-up: method as in ref (11) (a number printed in a supplementary file, which may have a reference list of its own: not looked up in the article's list); conditions: NH4Cl 10 mM, drug 50 µM, 120 min; ref (11); cited from earlier work

Structure (SMILES): CC[C@H]1OC(=O)[C@H](C)[C@@H](O[C@H]2C[C@@](C)(OC)[C@@H](O)[C@H](C)O2)[C@H](C)[C@@H](O[C@@H]2O[C@H](C)C[C@H](N(C)C)[C@H]2O)[C@](C)(OC)C[C@@H](C)C(=O)[C@H](C)[C@@H](O)[C@]1(C)O [Clarithromycin]
- fraction unbound [1]: 0.93 ± 0.03
- Km ([2]; active uptake): 28.5 µM
- Vmax ([2]; active uptake): 12.4 pmol/min/10^6 cells
- total CLuptake from kinetic parameters [2]: 0.46 μL/min/10^6 cells
- reduction in LTR accumulation [3]: 86%
- Acid–base Property [4]: Base
- % Reduction in Kp by Monensin ([5]; monensin 5 μM): 77%
- % Reduction in Kp by Nigericin ([5]; nigericin 10 μM): 82%
- cytotoxicity (LDH) compared to positive control ([6]; drug 50 μM): < 3%
- cytotoxicity (LDH) compared to positive control ([6]; drug 100 μM): 10%
- Kp ([7]; NR8383, 10 min, 37°C, initial concentration 50 μM): ~ 16
- reduction in Kp at 4°C compared to 37°C ([7]; NR8383): 90%
- reduction of amount of drug in the cells by NH4Cl ([7]; NR8383): approximately half
- reduction of fraction of drug in the granules compartment (containing the lysosomes) by NH4Cl ([7]; NR8383): 75%
- LogD7.4 [8]: 1.57
- Contribution of passive (%) ([9]; NR8383, 5 μM, CLdiff relative to CLuptake): 0.53%
- mean uptake of 5 μM clarithromycin across experiments ([9]; control of individual experiments, n = 59): 5.50 ± 2.96 μl/min/10^6 cells
- Reduction in uptake clearance (%) ([10]; 5 µM drug, + 10 mM NH4Cl): 85%
- Reduction in uptake clearance (%) ([10]; 5 µM drug, + 20 mM NH4Cl): 93%
- Reduction in uptake clearance (%) ([10]; 5 µM drug, + 50 mM NH4Cl): 94%
- Reduction in uptake clearance (%) ([10]; 20 µM drug, + 10 mM NH4Cl): 85%
- Reduction in uptake clearance (%) ([10]; 20 µM drug, + 20 mM NH4Cl): 89%
- Reduction in uptake clearance (%) ([10]; 20 µM drug, + 50 mM NH4Cl): 93%
- % Reduction in Kp by NH4Cl ([10]; NR8383, 5 μM drug): 84 ± 6.6 %
- % Reduction in Kp by Monensin ([10]; NR8383, 5 μM drug, monensin 5 μM, 5 min): 77 ± 8.5 %
- % Reduction in Kp by Nigericin ([10]; NR8383, 5 μM drug, nigericin 10 μM, 5 min): 82 ± 9.6 %
- % Reduction in Kp by NH4Cl ([10]; NR8383, 20 µM drug): 75 ± 8.3 %
- % Reduction in CLuptake by Monensin (5 µM) ([10]; NR8383, at 5 µM drug): 78 ± 8.0 %
- % Reduction in CLuptake by NH4Cl (20 mM) ([10]; NR8383, at 5 µM drug): 85 ± 7.5 %
- % Reduction in CLuptake by Nigericin (10 µM) ([10]; NR8383, at 5 µM drug): 84 ± 9.2 %
- % Reduction in CLuptake by NH4Cl (20 mM) ([10]; NR8383, at 20 µM drug): 78 ± 9.0 %
- reduction of Kp and CLuptake in the presence of NH4Cl and monensin/nigericin ([10]; NR8383, summary in Abstract): 59–85%
- reduction in Kp in the presence of chemical agents (summary in Discussion) ([10]; NR8383, NH4Cl, monensin, nigericin): ≥ 65%
- KU1 [11]: 1.18 ± 1.45 µM

Structure (SMILES): CN(C)CCCN1c2ccccc2CCc2ccccc21 [Imipramine]
- cytotoxicity (LDH) compared to positive control ([6]; drug 50 μM): less than 1%
- cytotoxicity (LDH) compared to positive control ([6]; drug 100 μM): less than 1%
- estimated Kp [12]: 17–44
- Reduction in total uptake (%) ([13]; NH4Cl 50 mM, drug 10^-4 µM): 70^b %
- Reduction of total uptake (%) ([13]; nigericin 50 µM, drug 0.001 µM): 70^b %
- Reduction in total uptake (%) [14]: 59%
- Reduction in total uptake (%) [15]: 58%
- Reduction in total uptake (%) [16]: 31%
- Reduction in total uptake (%) [17]: 35%
- Reduction in total uptake (%) [18]: 57%
- Reduction in total uptake (%) [19]: 49%
- Reduction in total uptake (%) [20]: 62%
- Reduction in total uptake (%) ([21]; NH4Cl 20 mM): 41%
- Reduction of total uptake (%) ([21]; monensin 10 µM): 37%
- Reduction of total uptake (%) [22]: 64%
- Reduction of total uptake (%) [23]: 48%
- Reduction of total uptake (%) ([24]; monensin 10 µM): 83%
- Reduction of total uptake (%) ([24]; monensin […]): 50%
- Reduction of total uptake (%) ([25]; relative to control with ATP): 99%
- Reduction of total uptake (%) ([25]; relative to control without ATP): 93%
- KU1 [11]: 0.9 ± 0.3 µM

Structure (SMILES): CC[C@H]1OC(=O)[C@H](C)C(=O)[C@H](C)[C@@H](O[C@@H]2O[C@H](C)C[C@H](N(C)C)[C@H]2O)[C@](C)(OC)C[C@@H](C)C(=O)[C@H](C)[C@H]2N(CCCCn3cnc(-c4cccnc4)c3)C(=O)O[C@]12C [Telithromycin]
- Reduction in total uptake (%) [26]: 80^b %
